What was measured:
[1] = system: Chaetoceros gracilis; assay: Chaetoceros gracilis toxicity (phytoplankton growth) assay; type: cell-based; conditions: for EC50: Chaetoceros neogracilis, 96 h
Experimental: For phytoplankton growth toxicity assays, the criterion for assay validity was that the cell count of the negative control after 96 h should be ≥2 × 10^5 cells/mL [40].
The centric marine diatom C. gracilis Schütt (strain CCMP1315) was grown photoautotrophically in autoclaved artificial seawater (sea salts; Sigma-Aldrich, St. Louis, MO, USA) (30‰) supplemented with F/2 (half-strength medium f as subsequently modified) in 100 mL medium at 20 °C and with ambient air bubbled in the media. By monitoring cell density, an adjusted culture of >1 × 10^6 cells/mL was used for the toxicity assays. At 96 h, a 0.9 mL aliquot of each treatment was sampled, mixed with 0.1 mL Lugol and cell density was counted. Experiments were assumed valid if cell count in the control after 96 h was […].
(§1) For EC50 or IC50 (the concentration that results in 50% stimulation or inhibition relative to the control) calculations in GraphPad Prism v.6, all data were fitted to the curve according to the following models for normalized response: Y = 100/(1 + 10^((X − LogIC50))) or Y = 100/(1 + 10^((LogEC50 − X))) depending on the trend of the curve.

[2] = system: HEK293 cell line; assay: HEK293 neutral red assay (lysosome activity); type: cell-based, human; conditions: for effect on lysosomal activity (in words): HEK293; for EC50: Homo sapiens, HEK293, Neutral red assay, 48 h incubation
Experimental: (§2) The RTL-W1 cell line, a non-transformed rainbow trout liver cell line that has already been used in environmental toxicity assays, was established from the normal liver of an adult rainbow trout by proteolytic dissociation of liver fragments. RTL-W1 cells were cultured in 75 cm^2 culture flasks (Orange Scientific, Braine l’Alleud, Belgium) at 20 °C in Leibovitz’s (L-15, Sigma-Aldrich, St. Louis, MO, USA) medium supplemented with 5% fetal bovine serum (FBS) and 1% L-glutamine in CO2-free incubator. For the cytotoxicity assays of the selected secondary metabolites, cells were seeded at 3 × 10^4 cells/well density in a 96-well tissue culture plate (Orange Scientific Braine l’Alleud, Belgium) in 100 μL culture medium/well for 2 days before the assays. Three different cytotoxicity protocols were used: 1) The alamar blue/resazurin fluorometric/colorimetric cell viability assay to assess the metabolic capacity and mitochondrial function; 2) the crystal violet cell viability assay for indirect quantification of cell death; and 3) the neutral red cell proliferation assay for lysosomal activity. Two days after seeding the cells, cultures were incubated with various concentrations of selected secondary metabolites at 20 °C for 48 h before cell viability was assessed. […] For the alamar blue/resazurin fluorometric/colorimetric cell viability assay, 100 μL of 3 μg/100 μL Resazurin sodium salt (Sigma-Aldrich, St. Louis, MO, USA) in incubation medium was added on each well and incubated under sterile conditions at 20 °C for 4 h. For the crystal violet cell viability assay, after 48 h of incubation with each secondary metabolite, the culture medium was aspirated and cells were washed twice with sterile dd. H2O. The final wash was aspirated and 50 μL of 0.5% (w/v) crystal violet staining solution (20% methanol in dd. H2O) was added to each well followed by incubation for 20 min at room temperature on a bench rocker with a frequency of 20 oscillations per minute. The staining solution was then aspirated and the plate was washed four times with sterile dd. H2O and left to air-dry without its lid for 3 h at room temperature. Next, 200 μL of methanol was added to each well, and the plate was incubated with its lid on for 20 min at room temperature on a bench rocker with a frequency of 20 oscillations per minute. For the neutral red cell proliferation assay, after 48 h of incubation with each secondary metabolite, the culture medium was aspirated and cells were washed twice with phosphate-buffered saline (PBS, pH 7.4). Cells were then incubated with 100 μL of a 40 μg/mL neutral red staining solution in culture medium at 20 °C for 4 h followed by two washes with 150 μL of PBS. Then cells were incubated with 100 μL neutral red destain solution (50% ethanol, 49% dd. H2O, 1% glacial acetic acid) for 10 min on a bench rocker with a frequency of 80 oscillations per minute. Absorbance was read at 570 nm for alamar blue/resazurin and crystal violet and at 540 nm for neutral red using a Tecan infinite M200 Pro microplate reader. For each assay and each secondary metabolite, a minimum of four independent dose–response experiments with three replicates each were carried out. Calculations were carried out using detailed formulas (AbCam, Cambridge, UK, and results were analyzed with GraphPad Prism v.6.
(§3) HEK293 cells, a human embryotic kidney cell line, were obtained from ATCC (ATCC® CRL-1573™) at passage 37 of the original clone and used at passage 38. Cells were cultured routinely in 75 cm^2 culture flasks (Orange Scientific, Braine l’Alleud, Belgium) at 37 °C (5% CO2) in DMEM cell culture medium (Biosera) supplemented with 10% FBS (Sigma-Aldrich, St. Louis, MO, USA) and 1% L-glutamine. All assay conditions and protocols were identical to those described above for RTL-W1 cells with the exception that incubations were carried out at 37 °C. […]

[3] = Artemia salina toxicity assay; type: in vivo; conditions: Artemia salina, in vivo, read-out: EC50 Artemia salina toxicity (mortality)
Experimental: The short-term toxicity assay with A. salina nauplii was used to determine the toxicity of secondary metabolites. Hatching of A. salina nauplii was carried out in ASW (35‰) using 0.5 g of cysts incubated in 500 mL seawater at a temperature of 25 ± 1 °C and lateral illumination (1000 Lux). All cysts were kept in continuous suspension with aeration and 24 h later hatched larvae (instar I) were harvested. Toxicity assays were carried out in three independent experiments in 24-well plates with four replicates of each tested concentration. Ten nauplii per well were transferred with a Pasteur pipette into the 24-well plates and each well was filled with 2 mL of ASW and 50 μL of various concentrations of the tested compounds in methanol. Control treatments received 50 μL of methanol. Plates were incubated in the dark at 25 ± 1 °C for 48 h. Mortality was assessed by recording the number of individuals with no movement of their appendages within 10 seconds and is expressed as the percentage of the total number of assessed individuals for each concentration.
as §1

[4] = system: HEK293 cell line; assay: HEK293 alamar blue/resazurin assay (mitochondria function); type: cell-based, human; conditions: for effect on mitochondrial function and metabolism (in words): HEK293; for EC50: Homo sapiens, HEK293, Alamar blue/Resazurin assay, 48 h incubation
Experimental: as §2, §3

[5] = system: Bacillus mojavensis; assay: Marine bacteria growth assay (disc diffusion); type: cell-based; conditions: 24 h at 25 °C
Experimental: The ability of selected metabolites to inhibit the growth of bacteria was assessed using five strains of marine bacteria involved in marine surface biofilm formation, namely, B. subtilis, B. mojavensis, B. thuringiensis, P. putita and P. pseudoalcaligenes. Bacterial strains were maintained on Zobel marine agar plates. Sterile filter paper discs (4 mm) (GF/F; GE Healthcare, Little Chalfont, UK) were loaded with 40 μL samples of serial dilutions of each tested metabolite, allowed to dry at room temperature and then placed on agar plates (Zobel marine agar, pH = 7.3), which were seeded with a single strain of bacteria. Plates were incubated for 24 h at 25 °C. Marine bacteria growth inhibition was determined by measuring the zone of inhibition in mm around the filter paper disc. As a positive and negative control, standard discs were loaded with 40 μL of 0.5 M penicillin G (2 to 10 mm diameter) or solvent (40 μL methanol), respectively.

| SMILES | EC50 [1] [µM] | effect on lysosomal activity (in words) [2] | EC50 [2] [µM] | LC50 at 24 h [3] [µM] | LC50 at 48 h [3] [µM] | effect on mitochondrial function and metabolism (in words) [4] | EC50 [4] [µM] | effect on bacterial growth [5] | inhibition of C. gracilis growth (in words) [1] |
| --- | --- | --- | --- | --- | --- | --- | --- | --- | --- |
| C=C(C1CCC(C)(O)C(Br)C1)C1C(Br)C2C(CCC2(C)O)C1(C)C (stereo not shown) [Compound 19, neorogioldiol] | 352 | not affected | > 1000 | 31.5 | 304 | very selective against mitochondrial function and metabolism | 0.062 | none of these metabolites had any effect |  |
| CC1=C2CC[C@@](C)(Cl)[C@@H](Br)C[C@]2(C)[C@@H](C)[C@@H](Br)[C@@H]1O [Compound 9, perforenol] | 49.8 | not affected | > 1000 | 283 | 189 |  | 10.8 | none of these metabolites had any effect |  |
| C=CC(C)(O)CC[C@@H]1C(=C)CC[C@@H](Br)[C@@]1(C)CCC1OC1(C)C (stereo partly shown) [Compound 18] | 10.7 | not affected | > 1000 | 34.9 | 38.1 | very selective against mitochondrial function and metabolism | 0.225 | none of these metabolites had any effect |  |
| CC(C)[C@@H]1CC=C[C@H]2[C@H]3[C@](C)(CC[C@]12CBr)[C@@H](Br)CC[C@@]3(C)O [Bromosphaerol, reference compound] | 4.34 |  | 340 |  |  |  | 57.6 | none of these metabolites had any effect | very potent inhibitor of C. gracilis growth |

Reference: publication PMC6891695, “Evaluation of Antifouling Potential and Ecotoxicity of Secondary Metabolites Derived from Red Algae of the Genus Laurencia” (Marine Drugs, 2019)
